The text below walks through data of patent US8962621B2 (Shanghai Institute of Pharmaceutical Industry, priority 2010, dated 2015).

Structures can show the parent of a compound that is named as a salt.

Series [1] concerns the target 5-HT Transporter (hSERT) (Homo sapiens, UniProt P31645). Put plainly: Inhibition of [3H]-5-HT reuptake in HEK 293 cells stably expressing hSERT.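 For all read-outs here: compound preincubated 10 min at 30 °C, then 10 min uptake, filter-bound radioactivity counted by scintillation, inhibition relative to total (blank) minus non-specific (positive control) uptake.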 To be noted: for 5-HT Reuptake Inhibition: 10 μmol/L final concentration (b487 prints 0.1 mmol/L), HEK 293 hSERT cells, [3H]-5-HT.
For series [2], the target named is DA Transporter (hDAT) (Homo sapiens, UniProt Q01959). In words: Inhibition of [3H]-DA reuptake in HEK 293 cells stably expressing hDAT. Conditions: for DA Reuptake Inhibition: 10 μmol/L final concentration (b487 prints 0.1 mmol/L), HEK 293 hDAT cells, [3H]-DA.
Series [3] has as its target NA Transporter (hNAT) (Homo sapiens, UniProt P23975). In words: Inhibition of [3H]-NA reuptake in HEK 293 cells stably expressing hNAT. Conditions: 10 μmol/L final concentration (b487 prints 0.1 mmol/L); HEK 293 hNAT cells, [3H]-NA.
Series [4] relates to male Kunming mice. Put plainly: Mice forced swimming test. Format: in vivo. How it is done: Through intragastric administration, 10 mL·kg^−1 of each sample (physiological saline for the blank control group) is administrated. The mice are pre-screened for swimming one day before the actual test. The mouse is placed into water (25° C., 10 cm deep) in a glass tank (height 20 cm, diameter 14 cm) and forced to swim for 6 min. Those who stop swimming at around 70-160 s are chosen for the actual test which starts 24 h later. After 1 h of the administration, the forced swimming test is performed by placing the animal into the above-mentioned environment to swim for 6 min. The accumulative immobility time for the last 4 min is recorded. Data is statistically analyzed with t-test.

In series [5] the test system is male ICR mice. Put plainly: Mice tail suspension test. Format: in vivo. How it is done:
Through intragastric administration, 10 mL·kg^−1 of each sample (physiological saline for the blank control group) is administrated. After 1 h of the treatment, the mouse is held with a medical tape at a position around 2 cm from the tip of its tail and hung upside-down in the suspension cage with its head 5 cm away from the bottom of the cage. The observation starts right after the mouse is suspended for 2 min and continues for 4 min. The time during which the mouse is immobile (no struggling or only tiny movements of its body/limbs) in this 4 min is accumulated (IT, immobility time). The percentage of the improvement is calculated according to the equation: Improvement %=[IT (blank control group)−IT (compound treatment group)]/IT (blank control group)×100%

NA Transporter (hNAT), sequence (P23975 whole entry): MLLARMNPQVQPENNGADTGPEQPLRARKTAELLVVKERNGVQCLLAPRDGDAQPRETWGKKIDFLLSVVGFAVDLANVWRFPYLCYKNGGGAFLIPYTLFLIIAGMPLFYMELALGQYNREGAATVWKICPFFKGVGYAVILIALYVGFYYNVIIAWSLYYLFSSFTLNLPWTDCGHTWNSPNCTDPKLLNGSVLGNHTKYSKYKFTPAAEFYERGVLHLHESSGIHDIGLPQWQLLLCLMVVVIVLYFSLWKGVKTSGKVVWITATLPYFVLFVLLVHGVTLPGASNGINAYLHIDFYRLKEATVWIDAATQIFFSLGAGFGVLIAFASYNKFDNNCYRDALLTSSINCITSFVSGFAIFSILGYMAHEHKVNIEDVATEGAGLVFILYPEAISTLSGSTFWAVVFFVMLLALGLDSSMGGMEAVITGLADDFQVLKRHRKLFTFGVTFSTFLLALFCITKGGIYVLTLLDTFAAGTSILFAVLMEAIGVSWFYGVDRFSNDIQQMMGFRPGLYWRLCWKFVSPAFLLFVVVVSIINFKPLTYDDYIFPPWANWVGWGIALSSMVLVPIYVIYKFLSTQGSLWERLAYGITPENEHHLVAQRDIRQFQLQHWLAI
DA Transporter (hDAT), sequence (Q01959 whole entry): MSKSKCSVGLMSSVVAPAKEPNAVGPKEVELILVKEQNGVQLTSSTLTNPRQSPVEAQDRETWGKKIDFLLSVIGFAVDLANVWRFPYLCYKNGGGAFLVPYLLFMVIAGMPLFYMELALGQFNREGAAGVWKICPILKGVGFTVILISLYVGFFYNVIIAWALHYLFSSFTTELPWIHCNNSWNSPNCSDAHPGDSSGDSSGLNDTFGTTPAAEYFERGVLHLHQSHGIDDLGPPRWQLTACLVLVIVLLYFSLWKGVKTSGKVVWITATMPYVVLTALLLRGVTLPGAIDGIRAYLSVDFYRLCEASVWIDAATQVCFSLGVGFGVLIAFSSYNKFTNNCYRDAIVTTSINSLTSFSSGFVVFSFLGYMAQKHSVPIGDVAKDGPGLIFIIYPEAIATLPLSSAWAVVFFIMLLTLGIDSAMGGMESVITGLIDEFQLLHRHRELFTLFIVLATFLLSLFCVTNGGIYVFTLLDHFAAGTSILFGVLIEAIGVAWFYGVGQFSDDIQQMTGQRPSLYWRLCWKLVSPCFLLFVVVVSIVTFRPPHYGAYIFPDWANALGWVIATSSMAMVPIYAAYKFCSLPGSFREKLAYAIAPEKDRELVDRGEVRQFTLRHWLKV
5-HT Transporter (hSERT), sequence (P31645 whole entry): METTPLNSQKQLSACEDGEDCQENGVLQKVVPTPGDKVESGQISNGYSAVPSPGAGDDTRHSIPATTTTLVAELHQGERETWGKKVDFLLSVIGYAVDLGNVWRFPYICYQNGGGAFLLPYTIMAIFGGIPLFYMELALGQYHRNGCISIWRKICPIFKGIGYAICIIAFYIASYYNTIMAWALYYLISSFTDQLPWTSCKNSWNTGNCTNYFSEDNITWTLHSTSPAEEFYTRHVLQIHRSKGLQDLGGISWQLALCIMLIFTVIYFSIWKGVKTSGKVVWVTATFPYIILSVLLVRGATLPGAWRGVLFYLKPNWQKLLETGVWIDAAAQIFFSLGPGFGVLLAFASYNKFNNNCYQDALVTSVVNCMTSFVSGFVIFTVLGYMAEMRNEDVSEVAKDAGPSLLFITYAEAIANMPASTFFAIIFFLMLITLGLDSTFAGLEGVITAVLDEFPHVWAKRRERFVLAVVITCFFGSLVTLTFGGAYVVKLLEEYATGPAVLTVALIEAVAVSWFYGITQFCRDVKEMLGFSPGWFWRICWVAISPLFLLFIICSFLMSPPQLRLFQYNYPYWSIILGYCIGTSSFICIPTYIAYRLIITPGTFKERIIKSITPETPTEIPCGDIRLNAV

On to `CCCN(C)C1(c2csc3ccccc23)CCCNC1` (stereo not shown) (as salt: hydrochloride), for which the melting point lay within 193.2 to 195 °C.

In turn, `CCCN(C)C1(c2ccc3c(c2)OCO3)CCCNC1` (stereo not shown) (as salt: hydrochloride) displayed a melting point of 189.3 to 192.4 °C.

`CCCN(C)C1(c2ccc(OC)c(OC)c2)CCCNC1` (stereo not shown) (as salt: hydrochloride): the melting point fell in the range of 195.2 to 197.8 °C.

With `CN(C)CCC(c1ccc(Cl)c(Cl)c1)N1CCNCC1` (stereo not shown) (as salt: hydrochloride) [VI-3, N,N-dimethyl-3-(3,4-dichlorophenyl)-3-(piperazin-1-yl)-propylamine], the melting point is 257.3 to 258.9 °C.

Compound `CN(C)CCCC1(c2ccc(Cl)c(Cl)c2)CCCNC1` (stereo not shown) (as salt: hydrochloride) [VI-7, N,N-dimethyl-3-(3,4-dichlorophenyl)-3-piperidyl-propylamine] displayed a melting point of 169.1 to 171.8 °C.

In the case of `CN(C)CCC(c1csc2ccccc12)N1CCCC1` (stereo not shown) (as salt: hydrochloride) [VI-13, N,N-dimethyl-3-(benzothiophen-3-yl)-3-(pyrrolidin-1-yl)-propylamine], the melting point lay within 259.7 to 262.2 °C.

In the case of `CN(CCC(c1csc2ccccc12)N1CCCC1)Cc1ccccc1` (stereo not shown) (as salt: hydrochloride) [VI-14, N-methyl-N-benzyl-3-(benzothiophen-3-yl)-3-(pyrrolidin-1-yl)-propylamine], the melting point is 297 to 299.5 °C.

`CNCCC(c1csc2ccccc12)N1CCCC1` (stereo not shown) (as salt: hydrochloride) [VI-15, N-methyl-3-(benzothiophen-3-yl)-3-(pyrrolidin-1-yl)-propylamine] came in with a melting point of 189.3 to 192 °C.

The compound `CN(CCCC1(c2csc3ccccc23)CCCNC1)Cc1ccccc1` (stereo not shown) (as salt: hydrochloride) [VI-17, N-methyl-N-benzyl-3-(benzothiophen-3-yl)-3-piperidyl-propylamine] came in with a melting point of 312 to 313.5 °C.

The compound `CN(C)CCC(c1cc2ccccc2s1)N1CCCC1` (stereo not shown) (as salt: hydrochloride) [VI-19, N,N-dimethyl-3-(benzothiophen-2-yl)-3-(pyrrolidin-1-yl)-propylamine] came in with a melting point of 255 to 257.2 °C.

Compound `CN(CCC(c1cc2ccccc2s1)N1CCCC1)Cc1ccccc1` (stereo not shown) (as salt: hydrochloride) [VI-20, N-methyl-N-benzyl-3-(benzothiophen-2-yl)-3-(pyrrolidin-1-yl)-propylamine] gave a melting point of 287.5 to 289.2 °C.

With `CNCCC(c1cc2ccccc2s1)N1CCCC1` (stereo not shown) (as salt: hydrochloride) [VI-21, N-methyl-3-(benzothiophen-2-yl)-3-(pyrrolidin-1-yl)-propylamine], the melting point fell in the range of 175 to 176.8 °C.

With `CN(CCCC1(c2cc3ccccc3s2)CCCNC1)Cc1ccccc1` (stereo not shown) (as salt: hydrochloride) [VI-23, N-methyl-N-benzyl-3-(benzothiophen-2-yl)-3-piperidyl-propylamine], the melting point lay within 298.5 to 300 °C.

`CCCN(C)C1(c2cc3ccccc3s2)CCCNC1` (stereo not shown) (as salt: hydrochloride) [VI-24, N-methyl-3-(benzothiophen-2-yl)-3-piperidyl-propylamine] came in with a melting point of 185.3 to 187 °C.

Turning to `COc1ccc2cc(C(CCN(C)C)N3CCCC3)ccc2c1Cl` (stereo not shown) (as salt: hydrochloride) [VI-36, N,N-dimethyl-3-(5-chloro-6-methoxynaphthalen-2-yl)-3-(pyrrolidin-1-yl)-propylamine], the melting point was 215.2 to 216.9 °C.

Take `COc1ccc(C(CCN(C)C)N2CCCC2)cc1` (stereo not shown) (as salt: hydrochloride) [VI-37, N,N-dimethyl-3-(4-methoxyphenyl)-3-(pyrrolidin-1-yl)-propylamine]: the melting point was in the range of 175.2 to 178.4 °C.

In turn, `CN(C)CCCC(c1ccc(Cl)c(Cl)c1)N1CCNCC1` (stereo not shown) (as salt: hydrochloride) [VI-45, N,N-dimethyl-4-(3,4-dichlorophenyl)-4-(piperazin-1-yl)-butylamine] yielded a melting point of 245.6 to 248.2 °C.

`CN(C)CCCC(c1csc2ccccc12)N1CCNCC1` (stereo not shown) (as salt: hydrochloride) [VI-47, N,N-dimethyl-4-(benzothiophen-3-yl)-4-(piperazin-1-yl)-butylamine]: the melting point was 249.6 to 252.2 °C.

For `CN(CCCC1(c2ccc3c(c2)OCO3)CCCNC1)Cc1ccccc1` (stereo not shown) (as salt: hydrochloride) [VI-53, N-methyl-N-benzyl-3-(1,2-methylenedioxybenzen-4-yl)-3-piperidyl-propylamine], the melting point fell in the range of 285.6 to 288.9 °C.

Compound `COc1ccc(C2(CCCN(C)Cc3ccccc3)CCCNC2)cc1OC` (stereo not shown) (as salt: hydrochloride) [VI-59, N-methyl-N-benzyl-3-(3,4-dimethoxyphenyl)-3-piperidyl-propylamine] yielded a melting point of 256.6 to 258.9 °C.

Turning to `Clc1ccc([C@]23CNC[C@H]2C3)cc1Cl` [DOV-21947, reference compound], the inhibition at 10 µM in series [1] (HEK293, read-out: 5-HT Reuptake Inhibition) came out at 100%; in series [2] (HEK293, read-out: DA Reuptake Inhibition), 100%.

With `CN(C)CCC(c1ccc(Cl)c(Cl)c1)N1CCOCC1` (stereo not shown) [VI-4, N,N-dimethyl-3-(3,4-dichlorophenyl)-3-morpholinyl-propylamine], in series [1], the “inhibition effect towards the reuptake of 5-HT (in words)” value is listed as “relatively strong inhibition effect” and the “5-HT Reuptake Inhibition” value is on record as 101.9%. In addition, in series [3], the “NA Reuptake Inhibition” value is 93.6%. Further, the “effect in the forced swimming test (in words)” value in series [4] (20 mg/kg) is “significant reduction in the immobility time”. Besides, the “IT (sec), immobility time” value in series [4] (20.0 mg/kg single intragastric administration, 1 h before test, last 4 min of 6 min, n=12) was determined as 52.8 ± 32.0 s. In series [5] (20.0 mg/kg single intragastric administration, 1 h before test, 4 min observation, n=12), the “IT (sec), immobility time” value was found to be 38.65 ± 16.32 s. In addition, the “Improvement (%)” value in series [5] (20.0 mg/kg single oral administration, versus blank control IT) is reported as 61.04%. Moreover, the “effect on immobility time in the tail suspension test (in words)” value in series [5] (20 mg/kg, efficacy similar to Venlafaxine) is given as “significant reduction in the immobility time”. The “DA Reuptake Inhibition” value in series [2] is on record as 89.9%.

Consider `CN(C)CCC(c1cc2ccccc2s1)N1CCOCC1` (stereo not shown) [VI-25, N,N-dimethyl-3-(benzothiophen-2-yl)-3-morpholinyl-propylamine], for which the “5-HT Reuptake Inhibition” value in series [1] came to 91.5%. The “NA Reuptake Inhibition” value in series [3] is listed as 96.8%. Moreover, the “DA Reuptake Inhibition” value in series [2] came to 39.2%.

Turning to `COc1ccc2cc(C(CCN(C)C)N3CCOCC3)ccc2c1Cl` (stereo not shown) [VI-34, N,N-dimethyl-3-(5-chloro-6-methoxynaphthalen-2-yl)-3-morpholinyl-propylamine], in series [1], the “5-HT Reuptake Inhibition” value was found to be 47.3%. Also, the “NA Reuptake Inhibition” value in series [3] turned out to be 49.5%. Besides, in series [2], the “DA Reuptake Inhibition” value is on record as 2.48%.

Consider `COc1ccc(C(CCN(C)C)N2CCOCC2)cc1` (stereo not shown) [VI-38, N,N-dimethyl-3-(4-methoxyphenyl)-3-morpholinyl-propylamine], for which the “5-HT Reuptake Inhibition” value in series [1] is on record as 25.9%. Further, in series [3], the “NA Reuptake Inhibition” value amounted to 29.3%. Further, the “DA Reuptake Inhibition” value in series [2] was 23.0%.

Turning to `CN(C)CCCC(c1ccc(Cl)c(Cl)c1)N1CCOCC1` (stereo not shown) [VI-44, N,N-dimethyl-4-(3,4-dichlorophenyl)-4-morpholinyl-butylamine], the “5-HT Reuptake Inhibition” value in series [1] worked out at 45.8%. Further, in series [3], the “NA Reuptake Inhibition” value was 54.6%. Also, the “DA Reuptake Inhibition” value in series [2] worked out at 67.0%.

As to `CN(C)CCC(c1ccc(F)cc1F)N1CCOCC1` (stereo not shown) [VI-48, N,N-dimethyl-3-(2,4-difluorophenyl)-3-morpholinyl-propylamine], in series [1], the “5-HT Reuptake Inhibition” value is 65.0%. In addition, the “NA Reuptake Inhibition” value in series [3] came out at 58.0%. For the same compound, in series [2], the “DA Reuptake Inhibition” value is 45.6%.

On to `COc1ccc(C(CCN(C)Cc2ccccc2)N2CCOCC2)cc1OC` (stereo not shown) [VI-56, N-methyl-N-benzyl-3-(3,4-dimethoxyphenyl)-3-morpholinyl-propylamine], for which the “5-HT Reuptake Inhibition” value in series [1] was 78.0%. Moreover, the “NA Reuptake Inhibition” value in series [3] came to 68.7%. For the same compound, in series [2], the “DA Reuptake Inhibition” value is listed as 59.2%.

In the case of `CN(C)CCC(c1cccs1)N1CCOCC1` (stereo not shown) [VI-61, N,N-dimethyl-3-(thien-2-yl)-3-morpholinyl-propylamine], the “5-HT Reuptake Inhibition” value in series [1] stood at 78.9%. In series [3], the “NA Reuptake Inhibition” value was 75.0%. Besides, the “DA Reuptake Inhibition” value in series [2] is given as 65.6%.

What is called melting point is the temperature, or range, at which the solid turns liquid. What is called inhibition is the percentage by which the read-out fell short of the control.
